In ChEMBL document CHEMBL3991601, “The target landscape of clinical kinase drugs” (Science, 2017):
Active and inactive are the calls of the source. For most assays here, no stated cut-off is given here; in the data, actives have a measured Kd and inactives only a lower limit.

Assays:
[1] = molecular target: Ribosomal protein S6 kinase alpha-6 (Homo sapiens, UniProt Q9UK32)
[2] = molecular target: BMP-2-inducible protein kinase (Homo sapiens, UniProt Q9NSY1)
[3] = molecular target: Mitogen-activated protein kinase kinase kinase 20 (Homo sapiens, UniProt Q9NYL2)
[4] = molecular target: T1, Interleukin-1 receptor-associated kinase 4 (Homo sapiens, UniProt Q9NWZ3)
T1 sequence (Q9NWZ3 whole entry): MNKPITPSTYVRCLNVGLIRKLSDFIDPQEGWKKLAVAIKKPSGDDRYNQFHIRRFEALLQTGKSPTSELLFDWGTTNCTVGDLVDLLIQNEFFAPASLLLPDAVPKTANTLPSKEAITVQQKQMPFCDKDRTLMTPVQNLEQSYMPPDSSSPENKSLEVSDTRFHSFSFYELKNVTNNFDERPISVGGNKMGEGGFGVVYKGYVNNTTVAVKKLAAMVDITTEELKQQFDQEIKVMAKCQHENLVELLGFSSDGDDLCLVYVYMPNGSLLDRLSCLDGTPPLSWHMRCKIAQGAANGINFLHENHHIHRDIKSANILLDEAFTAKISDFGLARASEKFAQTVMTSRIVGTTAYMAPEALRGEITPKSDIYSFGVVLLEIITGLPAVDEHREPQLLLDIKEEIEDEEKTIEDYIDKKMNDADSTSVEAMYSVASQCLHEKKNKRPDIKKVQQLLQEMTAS

[5] = molecular target: T2, Serine/threonine-protein kinase TAO2 (Homo sapiens, UniProt Q9UL54)
T2 sequence (Q9UL54 whole entry): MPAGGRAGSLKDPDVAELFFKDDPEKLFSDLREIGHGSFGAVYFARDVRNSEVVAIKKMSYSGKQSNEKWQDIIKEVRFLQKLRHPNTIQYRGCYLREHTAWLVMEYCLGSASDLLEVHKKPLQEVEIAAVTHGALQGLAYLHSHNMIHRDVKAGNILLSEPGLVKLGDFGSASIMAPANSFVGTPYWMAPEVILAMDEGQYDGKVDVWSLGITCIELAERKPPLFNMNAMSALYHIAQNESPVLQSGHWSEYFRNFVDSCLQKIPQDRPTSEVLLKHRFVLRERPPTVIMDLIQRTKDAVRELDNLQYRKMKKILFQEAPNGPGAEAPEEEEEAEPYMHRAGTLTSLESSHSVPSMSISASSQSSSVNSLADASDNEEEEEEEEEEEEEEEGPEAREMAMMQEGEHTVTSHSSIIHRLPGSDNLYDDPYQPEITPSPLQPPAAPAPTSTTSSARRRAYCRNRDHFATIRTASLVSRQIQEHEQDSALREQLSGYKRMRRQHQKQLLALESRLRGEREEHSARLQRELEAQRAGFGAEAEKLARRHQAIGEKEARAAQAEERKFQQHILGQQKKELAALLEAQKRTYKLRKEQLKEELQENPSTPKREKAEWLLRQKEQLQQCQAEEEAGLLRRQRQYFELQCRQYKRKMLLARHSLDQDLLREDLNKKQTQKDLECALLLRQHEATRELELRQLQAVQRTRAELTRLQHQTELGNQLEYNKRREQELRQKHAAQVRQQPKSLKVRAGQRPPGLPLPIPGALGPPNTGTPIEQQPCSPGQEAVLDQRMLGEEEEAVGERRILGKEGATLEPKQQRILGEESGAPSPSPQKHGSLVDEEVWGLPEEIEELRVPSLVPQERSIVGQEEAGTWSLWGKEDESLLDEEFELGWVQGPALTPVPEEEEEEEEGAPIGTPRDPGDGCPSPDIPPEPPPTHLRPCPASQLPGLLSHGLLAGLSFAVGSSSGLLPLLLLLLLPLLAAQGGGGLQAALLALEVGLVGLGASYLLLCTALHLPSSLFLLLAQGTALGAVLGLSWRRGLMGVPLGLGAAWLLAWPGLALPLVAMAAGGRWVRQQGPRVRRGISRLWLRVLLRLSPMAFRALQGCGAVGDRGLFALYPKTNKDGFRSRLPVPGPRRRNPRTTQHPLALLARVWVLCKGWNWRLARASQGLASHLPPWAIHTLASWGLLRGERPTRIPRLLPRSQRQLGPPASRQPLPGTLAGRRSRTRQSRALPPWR

[6] = molecular target: T3, Acyl-CoA dehydrogenase family member 10 (Homo sapiens, UniProt Q6JQN1)
T3 sequence (Q6JQN1 whole entry): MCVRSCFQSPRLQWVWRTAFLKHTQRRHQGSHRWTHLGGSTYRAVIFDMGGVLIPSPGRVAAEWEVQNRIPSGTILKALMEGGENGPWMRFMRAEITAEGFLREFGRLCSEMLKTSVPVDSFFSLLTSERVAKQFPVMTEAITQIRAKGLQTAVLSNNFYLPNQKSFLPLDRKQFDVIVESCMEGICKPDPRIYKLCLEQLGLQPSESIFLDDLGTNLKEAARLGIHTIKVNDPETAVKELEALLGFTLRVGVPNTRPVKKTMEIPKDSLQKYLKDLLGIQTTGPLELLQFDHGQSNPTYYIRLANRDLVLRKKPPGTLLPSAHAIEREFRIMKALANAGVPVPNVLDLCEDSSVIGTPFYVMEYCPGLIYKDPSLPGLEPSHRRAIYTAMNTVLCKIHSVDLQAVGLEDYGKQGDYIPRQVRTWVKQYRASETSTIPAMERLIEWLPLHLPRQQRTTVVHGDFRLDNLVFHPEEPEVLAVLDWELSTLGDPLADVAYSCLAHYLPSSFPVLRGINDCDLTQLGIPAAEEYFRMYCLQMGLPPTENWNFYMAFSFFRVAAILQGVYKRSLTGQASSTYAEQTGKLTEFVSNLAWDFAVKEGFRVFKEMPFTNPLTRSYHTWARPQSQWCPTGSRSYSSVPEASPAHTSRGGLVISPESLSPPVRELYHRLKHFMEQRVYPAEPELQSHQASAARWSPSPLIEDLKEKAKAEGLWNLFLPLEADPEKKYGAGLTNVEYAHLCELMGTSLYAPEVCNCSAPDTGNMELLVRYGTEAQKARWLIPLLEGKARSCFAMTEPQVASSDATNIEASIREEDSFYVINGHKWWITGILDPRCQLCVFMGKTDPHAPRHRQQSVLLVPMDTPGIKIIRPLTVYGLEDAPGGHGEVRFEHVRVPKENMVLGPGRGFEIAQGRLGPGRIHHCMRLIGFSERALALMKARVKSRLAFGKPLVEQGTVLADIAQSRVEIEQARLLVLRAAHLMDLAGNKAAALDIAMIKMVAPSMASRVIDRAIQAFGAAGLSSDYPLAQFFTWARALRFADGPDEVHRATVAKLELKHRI

[7] = molecular target: Mitogen-activated protein kinase 10 (Homo sapiens, UniProt P53779)
Sequence of Mitogen-activated protein kinase 10 (P53779 whole entry): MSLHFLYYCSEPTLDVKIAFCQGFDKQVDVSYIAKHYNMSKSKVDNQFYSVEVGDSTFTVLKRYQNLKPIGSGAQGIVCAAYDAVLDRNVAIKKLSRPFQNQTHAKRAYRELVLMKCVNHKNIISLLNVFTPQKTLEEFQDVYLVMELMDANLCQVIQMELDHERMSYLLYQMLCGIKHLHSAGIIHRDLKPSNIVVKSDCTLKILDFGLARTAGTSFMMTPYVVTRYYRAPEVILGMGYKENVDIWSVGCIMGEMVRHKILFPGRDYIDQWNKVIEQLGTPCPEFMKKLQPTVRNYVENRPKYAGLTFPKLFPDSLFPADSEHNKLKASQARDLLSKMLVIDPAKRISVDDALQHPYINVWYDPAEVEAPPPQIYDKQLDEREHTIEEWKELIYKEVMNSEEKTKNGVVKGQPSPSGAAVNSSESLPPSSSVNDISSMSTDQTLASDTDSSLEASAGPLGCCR

Sequence of BMP-2-inducible protein kinase (Q9NSY1 whole entry): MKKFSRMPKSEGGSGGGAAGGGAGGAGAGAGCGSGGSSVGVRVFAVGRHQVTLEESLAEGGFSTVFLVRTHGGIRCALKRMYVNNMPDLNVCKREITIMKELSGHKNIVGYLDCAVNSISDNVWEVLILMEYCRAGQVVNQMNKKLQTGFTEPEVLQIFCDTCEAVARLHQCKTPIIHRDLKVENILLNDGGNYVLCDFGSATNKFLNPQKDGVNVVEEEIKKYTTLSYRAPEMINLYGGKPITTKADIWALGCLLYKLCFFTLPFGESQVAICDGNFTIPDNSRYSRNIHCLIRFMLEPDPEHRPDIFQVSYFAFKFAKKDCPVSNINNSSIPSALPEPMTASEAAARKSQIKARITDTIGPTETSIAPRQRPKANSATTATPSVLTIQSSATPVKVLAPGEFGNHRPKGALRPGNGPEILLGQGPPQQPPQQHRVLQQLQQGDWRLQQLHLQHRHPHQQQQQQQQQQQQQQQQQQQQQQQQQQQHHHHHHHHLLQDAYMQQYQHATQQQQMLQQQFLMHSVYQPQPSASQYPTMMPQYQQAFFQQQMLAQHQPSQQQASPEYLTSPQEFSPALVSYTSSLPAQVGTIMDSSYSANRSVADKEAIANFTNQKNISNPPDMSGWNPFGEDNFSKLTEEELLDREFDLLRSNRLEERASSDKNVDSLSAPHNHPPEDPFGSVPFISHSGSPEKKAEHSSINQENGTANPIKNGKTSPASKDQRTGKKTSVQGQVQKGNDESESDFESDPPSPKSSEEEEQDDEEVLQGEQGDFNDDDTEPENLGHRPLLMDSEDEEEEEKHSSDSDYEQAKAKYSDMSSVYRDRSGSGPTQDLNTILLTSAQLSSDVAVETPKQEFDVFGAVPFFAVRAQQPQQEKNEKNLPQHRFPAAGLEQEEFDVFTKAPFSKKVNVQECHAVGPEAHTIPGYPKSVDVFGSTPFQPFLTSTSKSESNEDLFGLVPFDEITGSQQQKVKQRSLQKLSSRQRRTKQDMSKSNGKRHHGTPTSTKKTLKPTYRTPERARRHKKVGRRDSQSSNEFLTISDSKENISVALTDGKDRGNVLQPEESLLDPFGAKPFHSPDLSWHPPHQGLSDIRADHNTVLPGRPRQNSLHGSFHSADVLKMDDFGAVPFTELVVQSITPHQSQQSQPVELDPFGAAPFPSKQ
Sequence of Ribosomal protein S6 kinase alpha-6 (Q9UK32 whole entry): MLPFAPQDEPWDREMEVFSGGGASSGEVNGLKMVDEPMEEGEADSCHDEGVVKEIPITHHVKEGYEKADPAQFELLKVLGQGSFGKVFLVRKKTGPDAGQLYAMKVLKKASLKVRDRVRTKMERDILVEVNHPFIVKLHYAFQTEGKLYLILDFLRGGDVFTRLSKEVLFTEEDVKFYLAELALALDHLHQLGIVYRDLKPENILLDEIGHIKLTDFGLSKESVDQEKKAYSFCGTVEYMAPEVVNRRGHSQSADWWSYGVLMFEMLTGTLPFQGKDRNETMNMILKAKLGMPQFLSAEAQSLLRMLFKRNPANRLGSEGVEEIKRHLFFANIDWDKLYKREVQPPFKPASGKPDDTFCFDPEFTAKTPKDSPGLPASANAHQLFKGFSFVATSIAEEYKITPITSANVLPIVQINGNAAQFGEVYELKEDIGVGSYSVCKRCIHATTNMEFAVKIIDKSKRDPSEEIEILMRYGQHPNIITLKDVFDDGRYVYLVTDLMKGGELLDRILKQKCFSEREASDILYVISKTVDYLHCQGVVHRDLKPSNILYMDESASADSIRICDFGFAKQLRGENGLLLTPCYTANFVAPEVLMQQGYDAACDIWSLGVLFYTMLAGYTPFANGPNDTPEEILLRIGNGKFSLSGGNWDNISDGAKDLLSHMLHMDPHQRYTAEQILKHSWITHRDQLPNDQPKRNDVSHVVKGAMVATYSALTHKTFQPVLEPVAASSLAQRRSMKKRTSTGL
Sequence of Mitogen-activated protein kinase kinase kinase 20 (Q9NYL2 whole entry): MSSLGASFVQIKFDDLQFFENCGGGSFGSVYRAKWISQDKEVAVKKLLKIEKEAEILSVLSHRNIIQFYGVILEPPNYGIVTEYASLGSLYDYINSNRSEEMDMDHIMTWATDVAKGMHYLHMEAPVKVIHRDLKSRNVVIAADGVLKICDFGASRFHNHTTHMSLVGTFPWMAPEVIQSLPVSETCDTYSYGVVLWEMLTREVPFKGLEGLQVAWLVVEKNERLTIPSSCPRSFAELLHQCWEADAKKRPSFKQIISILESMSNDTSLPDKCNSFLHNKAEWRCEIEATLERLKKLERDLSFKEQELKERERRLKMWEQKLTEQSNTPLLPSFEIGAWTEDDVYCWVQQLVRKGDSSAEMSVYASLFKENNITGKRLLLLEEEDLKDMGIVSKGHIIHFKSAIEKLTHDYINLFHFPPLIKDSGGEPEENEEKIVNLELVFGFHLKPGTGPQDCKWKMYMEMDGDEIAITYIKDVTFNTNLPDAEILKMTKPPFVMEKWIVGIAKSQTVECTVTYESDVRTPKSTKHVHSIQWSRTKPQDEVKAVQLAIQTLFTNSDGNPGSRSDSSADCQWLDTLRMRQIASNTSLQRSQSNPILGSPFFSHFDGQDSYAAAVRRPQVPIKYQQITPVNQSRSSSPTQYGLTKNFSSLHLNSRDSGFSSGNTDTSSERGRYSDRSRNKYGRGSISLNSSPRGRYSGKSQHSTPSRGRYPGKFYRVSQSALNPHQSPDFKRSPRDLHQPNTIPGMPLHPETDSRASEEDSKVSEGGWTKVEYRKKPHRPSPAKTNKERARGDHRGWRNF

Kd [1]	Kd [2]	Kd [3]	Kd [4]	Kd [5]	Kd [6]	Kd [7]	Compound
> 30 µM (inactive)	> 30 µM (inactive)	> 30 µM (inactive)	> 30 µM (inactive)	> 30 µM (inactive)	> 30 µM (inactive)	> 30 µM (inactive)	N[C@@H]1CCCN(c2c(/C=C3\SC(=O)NC3=O)cccc2-c2ccccc2)C1
> 30 µM (inactive)	> 30 µM (inactive)	> 30 µM (inactive)	> 30 µM (inactive)	> 30 µM (inactive)	> 30 µM (inactive)	> 30 µM (inactive)	CNS(=O)(=O)Nc1nccc(Cc2c(C)c3ccc(Oc4ncccn4)cc3oc2=O)c1F [AVUTOMETINIB]
> 30 µM (inactive)	> 30 µM (inactive)	9.54 µM (active)	> 30 µM (inactive)	> 30 µM (inactive)	> 30 µM (inactive)	> 30 µM (inactive)	COc1cc(CCc2cc(NC(=O)c3ccc(N4C[C@@H](C)N[C@@H](C)C4)cc3)n[nH]2)cc(OC)c1 [AZD-4547]
> 30 µM (inactive)	> 30 µM (inactive)	> 30 µM (inactive)	> 30 µM (inactive)	> 30 µM (inactive)	> 30 µM (inactive)	> 30 µM (inactive)	Cc1cc([C@@H](C)Nc2ccccc2C(=O)O)c2nc(N3CCOCC3)cc(=O)n2c1 [AZD-6482]
> 30 µM (inactive)	> 30 µM (inactive)	> 30 µM (inactive)	> 30 µM (inactive)	> 30 µM (inactive)	> 30 µM (inactive)	> 30 µM (inactive)	COc1ccc(-c2ccc3c(N4CCOC[C@@H]4C)nc(N4CCOC[C@@H]4C)nc3n2)cc1CO [AZD-8055]
> 30 µM (inactive)	> 30 µM (inactive)	> 30 µM (inactive)	> 30 µM (inactive)	> 30 µM (inactive)	> 30 µM (inactive)	> 30 µM (inactive)	C[C@@H](Nc1cc(F)cc(F)c1)c1cc(C(=O)N(C)C)cc2c(=O)cc(N3CCOCC3)oc12 [AZD-8186]
> 30 µM (inactive)	> 30 µM (inactive)	0.065 µM (active)	> 30 µM (inactive)	> 30 µM (inactive)	> 30 µM (inactive)	> 30 µM (inactive)	Cc1ccc(NC(=O)c2ccc(CN3CC[C@H](N(C)C)C3)c(C(F)(F)F)c2)cc1Nc1nccc(-c2cncnc2)n1 [BAFETINIB]
> 30 µM (inactive)	> 30 µM (inactive)	> 30 µM (inactive)	> 30 µM (inactive)	> 30 µM (inactive)	> 30 µM (inactive)	> 30 µM (inactive)	Cc1cc2c(F)c(Oc3ncnn4cc(OC[C@@H](C)OC(=O)[C@H](C)N)c(C)c34)ccc2[nH]1 [BRIVANIB ALANINATE]
> 30 µM (inactive)	> 30 µM (inactive)	> 30 µM (inactive)	> 30 µM (inactive)	> 30 µM (inactive)	> 30 µM (inactive)	> 30 µM (inactive)	CNC(=O)c1ccc(-c2cnc3ncc(Cc4ccc5ncccc5c4)n3n2)cc1F [CAPMATINIB]
> 30 µM (inactive)	> 30 µM (inactive)	> 30 µM (inactive)	> 30 µM (inactive)	2.23 µM (active)	> 30 µM (inactive)	> 30 µM (inactive)	CCc1cnn2c(NCc3ccc[n+]([O-])c3)cc(N3CCCC[C@H]3CCO)nc12 [DINACICLIB]
> 30 µM (inactive)	> 30 µM (inactive)	> 30 µM (inactive)	> 30 µM (inactive)	> 30 µM (inactive)	> 30 µM (inactive)	> 30 µM (inactive)	CO[C@H]1C[C@@H]2CC[C@@H](C)[C@@](O)(O2)C(=O)C(=O)N2CCCC[C@H]2C(=O)O[C@H]([C@H](C)C[C@@H]2CC[C@@H](OCCO)[C@H](OC)C2)CC(=O)[C@H](C)/C=C(\C)[C@@H](O)[C@@H](OC)C(=O)[C@H](C)C[C@H](C)/C=C/C=C/C=C/1C [EVEROLIMUS]
> 30 µM (inactive)	> 30 µM (inactive)	> 30 µM (inactive)	> 30 µM (inactive)	> 30 µM (inactive)	> 30 µM (inactive)	> 30 µM (inactive)	COCCNCc1ccc(-c2cc3nccc(Oc4ccc(NC(=S)NC(=O)Cc5ccc(F)cc5)cc4F)c3s2)nc1 [GLESATINIB]
> 30 µM (inactive)	> 30 µM (inactive)	> 30 µM (inactive)	> 30 µM (inactive)	> 30 µM (inactive)	> 30 µM (inactive)	> 30 µM (inactive)	CC[C@H](Nc1ncnc2[nH]cnc12)c1nc2cccc(F)c2c(=O)n1-c1ccccc1 [IDELALISIB]
> 30 µM (inactive)	> 30 µM (inactive)	> 30 µM (inactive)	> 30 µM (inactive)	> 30 µM (inactive)	> 30 µM (inactive)	> 30 µM (inactive)	Cn1cc(-c2ccc3nnc(C(F)(F)c4ccc5ncccc5c4)n3n2)cn1 [JNJ-38877605]

Compound	Kd [1]	Kd [2]	Kd [3]	Kd [4]	Kd [5]	Kd [6]	Kd [7]
CN1CC[C@@H](c2c(O)cc(O)c3c(=O)cc(-c4ccccc4Cl)oc23)[C@@H]1CO	> 30 µM (inactive)	> 30 µM (inactive)	> 30 µM (inactive)	> 30 µM (inactive)	> 30 µM (inactive)	> 30 µM (inactive)	> 30 µM (inactive)
Cc1cc(-c2cc(O)ccc2Cl)cc2nnc(Nc3ccc(OCCN4CCCC4)cc3)nc12	> 30 µM (inactive)	> 30 µM (inactive)	> 30 µM (inactive)	> 30 µM (inactive)	> 30 µM (inactive)	> 30 µM (inactive)	> 30 µM (inactive)
O=C(c1ccc(F)c(F)c1Nc1ccc(I)cc1F)N1CC(O)([C@@H]2CCCCN2)C1 [COBIMETINIB]	> 30 µM (inactive)	> 30 µM (inactive)	> 30 µM (inactive)	> 30 µM (inactive)	> 30 µM (inactive)	> 30 µM (inactive)	> 30 µM (inactive)
